pKd: −log10 of the molar value.
Target: vaccinia-related kinase 1 (VRK1) (Homo sapiens, UniProt Q99986)
Assay: biochemical
Format: binding

Sequence of vaccinia-related kinase 1 (VRK1) (Q99986 whole entry): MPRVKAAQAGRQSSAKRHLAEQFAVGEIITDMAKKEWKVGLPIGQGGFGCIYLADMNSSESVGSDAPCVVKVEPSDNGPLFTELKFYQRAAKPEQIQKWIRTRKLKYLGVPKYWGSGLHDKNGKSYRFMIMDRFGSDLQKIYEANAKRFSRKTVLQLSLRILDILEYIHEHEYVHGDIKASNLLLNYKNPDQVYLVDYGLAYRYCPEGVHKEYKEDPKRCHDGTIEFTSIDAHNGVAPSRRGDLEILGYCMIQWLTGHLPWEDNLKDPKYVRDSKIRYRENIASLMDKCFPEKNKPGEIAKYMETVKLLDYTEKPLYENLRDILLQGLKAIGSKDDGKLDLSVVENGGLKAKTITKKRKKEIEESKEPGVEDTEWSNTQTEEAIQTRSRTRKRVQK

C[C@H]1[C@H](C)CC[C@]2(C(=O)O)CC[C@]3(C)C(=CC[C@@H]4[C@@]5(C)CC[C@H](O)C(C)(C)[C@@H]5CC[C@]43C)[C@H]12 [UA, (1S,2R,4aS,6aR,6aS,6bR,8aR,10S,12aR,14bS)-10-hydroxy-1,2,6a,6b,9,9,12a-heptamethyl-2,3,4,5,6,6a,7,8,8a,10,11,12,13,14b-tetradecahydro-1H-picene-4a-carboxylic acid]
pKd: 6.14
